Measured values: paper PMC4931907 (eLife, 2016)

Biological target: T1, p300 HAT domain (residues 1279–1666, Tyr1467Phe) (Homo sapiens, UniProt Q09472, Y1467F)
T1 construct: 6-His (N, cleaved yes); made in house; host or cells: E. coli BL21 (DE3)
T1 sequence (Q09472 1279-1666 Y1467F): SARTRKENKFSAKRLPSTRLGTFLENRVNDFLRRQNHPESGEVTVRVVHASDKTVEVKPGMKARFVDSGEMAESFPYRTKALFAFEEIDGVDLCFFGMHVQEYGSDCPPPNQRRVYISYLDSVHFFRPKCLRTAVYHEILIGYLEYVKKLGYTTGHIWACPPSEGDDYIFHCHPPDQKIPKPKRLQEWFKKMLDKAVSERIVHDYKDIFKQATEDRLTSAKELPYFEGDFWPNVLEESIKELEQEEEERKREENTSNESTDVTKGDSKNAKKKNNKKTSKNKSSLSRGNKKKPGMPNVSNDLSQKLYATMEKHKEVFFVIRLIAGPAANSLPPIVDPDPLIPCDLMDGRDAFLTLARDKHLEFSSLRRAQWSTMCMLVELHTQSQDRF
Assay: Thermal stability assay (SYPRO orange)
Format: binding
Settings: p300/acetyl-CoA without salicylate 48.6°C
Experimental: To confirm that salicylate binds to p300, we used thermal stability assays. A p300 HAT domain construct (residues 1279–1666) bearing an inactivating Tyr1467Phe mutation to facilitate purification of homogeneously hypoacetylated p300 was expressed and purified with an N-terminal 6-His tag from E. coli cells. The protein was further purified by chromatography and incubated with increasing concentrations of sodium salicylate for 30 min and with SYPRO orange dye (Invitrogen). Thermal melt curves were obtained by heating the protein from 20–95°C and monitoring fluorescence at 590 nm.
A thermal stability assay was used to assess the binding of salicylate to the p300 HAT domain. A p300 HAT domain construct (residues 1279–1666) bearing an inactivating Tyr1467Phe mutation to facilitate purification of homogeneously hypoacetyalted p300 was cloned into a pET-DUET vector with an N-terminal 6-His tag and expressed in BL21 (DE3) E. coli cells. […]
The final concentration of p300 was 2 μM in reaction buffer (0.1 M HEPES, pH 7.5, 150 mM NaCl, and 5 mM -mercaptoethanol). […] Thermal melt curves were obtained by heating the protein from 20–95°C and monitoring fluorescence at 590 nm with a 7900HT Fast Real Time PCR System (Applied Biosystems). […]

SMILES: O=C(O)c1ccccc1O [salicylate, salicylic acid]
- Thermal unfolding temperature of p300 HAT domain (10 mM salicylate): 46.1 °C
- Thermal unfolding temperature of p300 HAT domain (25 mM salicylate): 40.8 °C
